The subject of experiment [1] is Colo-205 human colorectal carcinoma xenografts. As to the kind of experiment: Tumor growth delay, Colo-205 xenografts. Type of experiment: in vivo, CD-1 nu/nu mice. Particulars: cisplatin 5 mg/kg IP, Compound I 5 mg/kg IV, alone or combined, 3 cycles separated by 7 days, time to 1000 mm^3 vs control. The protocol: (§1) Cultured cells are implanted subcutaneously in the rear flank of female CD-1 nu/nu strain mice which have been acclimated for one week in the animal facility after receipt from the vendor. Mice are randomized into groups of 7 or 8 mice per group and treatment begun when the mean tumor volume reaches ˜100 mm^3 Compound I is dosed IV and the chemotherapeutic agent is given IP. When the agents are given in combination, the chemotherapeutic agent is dosed 60 minutes prior to Compound I. The tumors are measured 2 times per week by electronic calipers to plot growth curves. Tumor growth delay is the increase in median time it takes for a tumor to reach 1000 mm^3 in volume when compared to a control group. Animals are also monitored for fluctuations in body weight and survival.

Experiment [2] has as its system A2780 human ovarian carcinoma xenografts. In words: Tumor growth delay, A2780 xenografts. Type of experiment: in vivo, CD-1 nu/nu mice. Conditions: cisplatin 5 mg/kg IP, Compound I 5 mg/kg IV, alone or combined, 3 cycles separated by 7 days, time to 1000 mm^3 vs control. The protocol: as §1
The subject of experiment [3] is A2780. In words: Caspase-3/7 apoptosis assay (Apo-ONE) in A2780. Type of experiment: cell-based, human. From the text: (§2) Apoptosis or programmed cell death is characterized by a set of biochemical reactions, one of which is the induction of caspases. Activated caspases are proteases that participate in a cascade of cleavage events that disable key enzymes responsible for cell homeostasis and repair. Caspases 3 and 7 play key effector roles in apoptosis and can be detected and measured by a fluorescent biochemical assay. The increase of Caspase-3/7 activity in cells is directly correlated to apoptotic activity. (D. W. Nicholson, et al., Nature, 376, 37-43 (1995)) The Promega Apo-ONE Homogeneous Caspase-3/7 Assay Kit was used (Catalog #G7791). The assay buffer consists of 30 mM HEPES (N-(2-hydroxyethyl)piperazine-M-(2-ethanesulfonic acid) pH 7.4, 150 mM NaCl, 50 mM KCl, 10 mM MgCl2, 0.4 mM EGTA (ethylene glycol tetraacetic acid), 0.5% Nonidet P40 (octylphenolpoly(ethyleneglycol ether)), 0.1% CHAPS (3-[(3-Cholamidopropyl)dimeth-ylammonio]-1-propanesulfonate hydrate and 10% sucrose, which lyses/permeabilizes cultured cells and a caspase 3/7 substrate, Z-DEVD (Z-Asp(OMe)-Glu(OMe)-Val-Asp(OMe)), coupled to a profluorescent rhodamine 110. When the buffer-substrate mixture is added to a test sample, the cleavage and subsequent removal of the DEVD peptides by caspase 3/7 activity results in intense fluorescence of the rhodamine 110 leaving group, which is detected by excitation at 499 nm. The amount of fluorescent product is proportional to the amount of caspase 3/7 cleavage activity in the sample.
(§3) To measure the apoptotic effect of test compounds, tumor cells are plated at 1×10^4 cells per well in 96 well plates and incubated overnight at 37° C., with 5% CO2. Tumor cells are treated with test compound at desired concentrations in triplicate, including untreated/negative control wells. […] At the end of the incubation period, a mixture of the assay buffer and substrate is added to each sample well. The fluorescence in each well is measured at an excitation wavelength of 485+/−20 nm and an emission wavelength of 530+/−25 nm. The % increase of caspase activity in treated cells is calculated relative to untreated controls.
(§4) The data in Tables 1-12 are expressed as % increase of caspase activity relative to untreated controls unless otherwise noted.

The test system of experiment [4] is AGS. As to the kind of experiment: Caspase-3/7 apoptosis assay (Apo-ONE) in AGS. Type of experiment: cell-based. Particulars: Cmpd I 900 nM.
Text: as §2, §3, §4

Experiment [5] concerns NCI-H460 human non-small cell lung cancer xenografts. In words: Tumor growth delay, NCI-H460 xenografts. It counts as in vivo, CD-1 nu/nu mice. Particulars: Compound I 5 mg/kg IV, time to 1000 mm^3 vs control. The protocol:
as §1

In experiment [6] the test system is NCI-H460. As to the kind of experiment: Caspase-3/7 apoptosis assay (Apo-ONE) in NCI-H460. It counts as cell-based, human. Conditions: 48 hrs.
Text: as §2
(§5) To measure the apoptotic effect of test compounds, tumor cells are plated at 1×10^4 cells per well in 96 well plates and incubated overnight at 37° C., with 5% CO2. Tumor cells are treated with test compound at desired concentrations in triplicate, including untreated/negative control wells. The assay plates are re-incubated for 48 hrs. At the end of the incubation period, a mixture of the assay buffer and substrate is added to each sample well. The fluorescence in each well is measured at an excitation wavelength of 485+/−20 nm and an emission wavelength of 530+/−25 nm. The % increase of caspase activity in treated cells is calculated relative to untreated controls.
as §4

Experiment [7] deals with HCT-116 human colorectal carcinoma xenografts. As to the kind of experiment: Tumor growth delay, HCT-116 xenografts. Type of experiment: in vivo, CD-1 nu/nu mice. Conditions: cisplatin 10 mg/kg IP, Compound I 5 mg/kg IV, alone or combined, 3 cycles separated by 7 days, time to 1000 mm^3 vs control. The protocol: as §1
The test system of experiment [8] is Colo-205. In words: Caspase-3/7 apoptosis assay (Apo-ONE) in Colo-205. Type of experiment: cell-based, human. Particulars: 48 hrs.
Text: as §2, §5, §4

The subject of experiment [9] is SKOV3. As to the kind of experiment: Caspase-3/7 apoptosis assay (Apo-ONE) in SKOV3. It counts as cell-based. Conditions: Cmpd I 300 nM, Doxorubicin 1 μM, 48 hrs.
Text: as §2, with “The amount of fluorescent product is proportional to the amount of caspase 3/7 cleavage activity in the sample.” left out

Experiment [10] has as its system MKN 45. As to the kind of experiment: Caspase-3/7 apoptosis assay (Apo-ONE) in MKN 45. Type of experiment: cell-based.
Text: as §2, §3, §4

For experiment [11], the system named is HCT-116. As to the kind of experiment: Caspase-3/7 apoptosis assay (Apo-ONE) in HCT-116. Type of experiment: cell-based, human. Conditions: 48 hrs.
Text: as §2, §5, §4

Experiment [12] relates to A549. In words: Caspase-3/7 apoptosis assay (Apo-ONE) in A549. Type of experiment: cell-based. Particulars: Compound I 300 nM, 48 hrs.
Text: as §2, §5, §4

In experiment [13] the test system is KATO III. As to the kind of experiment: Caspase-3/7 apoptosis assay (Apo-ONE) in KATO III. Type of experiment: cell-based. Conditions: Cmpd I 600 nM, Cisplatin 10 μM, 48 hrs.
Text: as §2, with “The amount of fluorescent product is proportional to the amount of caspase 3/7 cleavage activity in the sample.” left out

The test system of experiment [14] is Calu-6. In words: Caspase-3/7 apoptosis assay (Apo-ONE) in Calu-6. It counts as cell-based. Particulars: 48 hrs.
Text: as §2, §5, §4

[15] abbreviates: Cmpd I 300 nM, Carboplatin 5 μM, plates incubated for 72 hours.
Where [16] appears, read: Compound I 30 nM, pemetrexed 60 nM, 48 hrs.
Setting [17] is: Carboplatin 50 mg/kg IP, alone or combined, every 14 days × 3 cycles.
Where [18] appears, read: NCI H-460, Cmpd I 300 nM, Etoposide 1 μM.
[19] abbreviates: NCI H-460, Cmpd I 300 nM, Gemcitabine 50 nM.
Where [20] appears, read: NCI H-460, Cmpd I 300 nM, Pemetrexed 500 nM.
Where [21] appears, read: NCI-H460, Compound I 100 nM, carboplatin 10 μM.
The mark [22] stands for this setting: Cmpd I 60 nM, Gemcitabine 30 nM.
[23] abbreviates: Compound I 30 nM, pemetrexed 60 nM.
The mark [24] stands for this setting: Calu-6, Compound I 30 nM, pemetrexed 60 nM.

Take `O=C1NC(=O)C(c2cnc3ccccn23)=C1c1cn2c3c(cc(F)cc13)CN(C(=O)N1CCCCC1)CC2` [Compound I, 7-(2,5-dihydro-4-imidazo[1,2-a]pyridine-3-yl-2,5-dioxo-1H-pyrrol-3-yl)-9-fluoro-1,2,3,4-tetrahydro-2-(1-piperidinyl-carbonyl)-pyrrolo[3,2,1-jk][1,4]benzodiazepine]: the “Tumor Growth Delay Mean ± Standard Error” value in experiment [1] is 10.9 ± 2.2 days; in experiment [2] it was -0.3 ± 1.4 days; in [5] (setting [17]), 3 ± 1.4 days; in [5] (carboplatin 10 mg/kg IP, pemetrexed 300 mg/kg IP, every 14 days for 3 cycles), 1.4 ± 3.8 days; in [7] it was 2 ± 2.2 days. Moreover, the “% increase of caspase activity relative to untreated controls” value in experiment [3] (setting [15]) is listed as 55%; in experiment [3] (setting [16]), 10%; in experiment [3] (Compound I 60 nM, cisplatin 5 μM, 48 hrs), 0%; in experiment [3] (Compound I 330 nM, CPT-11 20 nM, 48 hrs) it was 1%; in experiment [4] (5-FU 3 μM, 48 hrs) it was 0%; in experiment [4] (Cisplatin 5 μM, plates incubated for 72 hours), 0%. The “% increase of caspase activity relative to untreated controls” value in experiment [6] (setting [18]) is on record as 222%; in experiment [6] (setting [19]), 186%; in experiment [6] (setting [20]), 38%; in experiment [6] (setting [21]) it was 122%; in experiment [6] (NCI-H460, Compound I 300 nM, cisplatin 1 μM), 99%; in experiment [8] (Compound I 33 nM, CPT-11 20 nM), 45%. The “% increase of caspase activity relative to untreated controls” value is given as 12% in experiment [8] (Compound I 110 nM, cisplatin 5 μM); 0% in experiment [9]; 105% in experiment [10] (Cmpd I 300 nM, 5-FU 5 μM, plates incubated for 72 hours); 162% in experiment [10] (Cmpd I 600 nM, Cisplatin 10 μM, 48 hrs); 47% in experiment [11] (Cmpd I 12 nM, 5-FU 5 μM); 0% in experiment [11] (setting [22]). Moreover, the “% increase of caspase activity relative to untreated controls” value in experiment [11] (setting [23]) worked out at 0%; in experiment [11] (Compound I 300 nM, cisplatin 5 μM), 16%; in experiment [11] (Compound I 330 nM, CPT-11 20 nM), 53%; in [12] (carboplatin 10 μM), 52%; in [12] (cisplatin 1 μM) it was 80%; in [13], 48%. In addition, the “% increase of caspase activity relative to untreated controls” value in [14] (Calu 6, Cmpd I 33 nM, Cisplatin 2 μM) is recorded as 154%; in experiment [14] (setting [24]), 139%.

In the case of `Nc1nc2[nH]cc(CCc3ccc(C(=O)N[C@@H](CCC(=O)O)C(=O)O)cc3)c2c(=O)[nH]1` [Pemetrexed, pemetrexed, reference compound], the “% increase of caspase activity relative to untreated controls” value was 0% in experiment [3] (setting [16]), 185% in experiment [6] (setting [20]), 23% in [11] (setting [23]) and 24% in experiment [14] (setting [24]).

For the compound `N.N.O=C([O-])C1(C(=O)[O-])CCC1.[Pt+2]` [carboplatin, reference compound], the “% increase of caspase activity relative to untreated controls” value in [3] (setting [15]) turned out to be 78%; in experiment [6] (setting [21]), 16%; in [12] (carboplatin 10 μM), 14%. In addition, the “Tumor Growth Delay Mean ± Standard Error” value in experiment [5] (setting [17]) worked out at 2 ± 2.9 days.

Take `COc1cc([C@@H]2c3cc4c(cc3[C@@H](O[C@@H]3O[C@@H]5CO[C@@H](C)O[C@H]5[C@H](O)[C@H]3O)[C@H]3COC(=O)[C@H]23)OCO4)cc(OC)c1O` [Etoposide, etoposide, reference compound]: in experiment [6] (setting [18]), the “% increase of caspase activity relative to untreated controls” value was determined as 251%.

On to `Nc1ccn([C@@H]2O[C@H](CO)[C@@H](O)C2(F)F)c(=O)n1` [Gemcitabine, reference compound], for which the “% increase of caspase activity relative to untreated controls” value is given as 1187% in experiment [6] (setting [19]) and 324% in [11] (setting [22]).

For the origin of these results see patent publication US8648063B2, “Potentiation of cancer chemotherapy by 7-(2, 5-dihydro-4-imidazo [1, 2-a] pyridine-3-yl-2,5-dioxo-1H-pyrrol-3-yl)-9-fluoro-1,2,3,4 tetrahydro -2-(1-piperidinyl-carbonyl)-pyrrolo [3,2,1-jk] [1,4] benzodiazepine” (Eli Lilly and Company, priority 2007, dated 2014).
